Experimental data: PMC3776838, “Detection of Phospho-Sites Generated by Protein Kinase CK2 in CFTR: Mechanistic Aspects of Thr1471 Phosphorylation” (PLoS ONE, 2013)
Entries after “also recorded” stand apart in the source; their conditions may differ.

How the values were obtained:
CFTR wild type = test: De novo synthesized CFTR level after CHX wash-out with CK2 inhibitor, wild type; format: cell-based, human; details: BHK cells, 2 h CHX 100 µg/mL, washed, then 2 µM CX4945 for 2, 4, 8 h, Western blot, vs vehicle, Figure 5A
Description: (§1) Baby hamster kidney cells (BHK) stably expressing human CFTR (hCFTR) either wild type (WT), or Phe508del, or WT T1471A were growth to reach 70–80% confluency. After 2 h-long treatment with 100 µg/mL cyclohexamide, cells were washed with PBS and incubated with 2 µM CX4945 or its vehicle for the indicated time. At each time-point cells were washed with ice-cold PBS, scraped from the plates, pelleted by centrifugation (1200 g for 5 min at room tempertaure) and lysed in a buffer containing 1% (v/v) Nonidet P40, 50 mM Tris/HCl (pH 7.5) and 150 mM NaCl with fresh protease inhibitor tablets (Roche), 1 µM Okadaic acid (Alexis) and phosphatases inhibitors cocktails 2 and 3 (Sigma). Cells were lysed by incubation on ice for 30 min and then the lysates were cleared by centrifugation at 17000 g for 30 min at 4°C. The supernatant was collected and subjected to protein concentration quantification.
(§2) Western blot analysis was performed as described in [14] using a modified Laemmli buffer containing 105 mM dithiothreitol (final concentration) to enhance the solubilization of CFTR. […] Immunoblots were developed by enhanced chemiluminescence, detected on Kodak Image Station 440 cf and analyzed by the Kodak 1D image software. […]

CK2 = tested on: CK2; set-up: method as in PMID 21870818; details: ref [43]; cited from earlier work
CFTR T1471A = test: De novo synthesized CFTR level after CHX wash-out with CK2 inhibitor, T1471A; format: cell-based, human; details: BHK cells; 2 h CHX 100 µg/mL, washed, then 2 µM CX4945 for 2, 4, 8 h; Western blot; vs vehicle; Figure 5B
Description: as §1, §2

Phe508delCFTR = test: De novo synthesized CFTR level after CHX wash-out with CK2 inhibitor, Phe508del; format: cell-based, human; details: BHK cells, washed; for effect on de novo synthesis / accumulation of Phe508delCFTR: 2 h CHX 100 µg/mL, then 2 µM CX4945 for 2, 4, 8 h, Western blot, vs vehicle, Figure 5C
Description: as §1
Western blot analysis was performed as described in [14] using a modified Laemmli buffer containing 105 mM dithiothreitol (final concentration) to enhance the solubilization of CFTR. 20–30 µg of total proteins were separated on 4–12% precast NuPage® Bis-Tris gradient gels (Invitrogen) according to the manufacturer’s instructions and transferred on to Optitran BA-S 83 nitrocellulose membranes (Whatman) with a semi-dry blotter (Biometra) for 1 h at 150 mA. Membranes were saturated for 1 h with 5% skimmed milk in Tris-buffered saline (TBS) containing 0.2% Tween 20. Immunoblots were developed by enhanced chemiluminescence, detected on Kodak Image Station 440 cf and analyzed by the Kodak 1D image software. […]
In order to evaluate the efficacy of CX4945 on the level of de novo synthesized CFTR, protein synthesis was inhibited by two hours cell treatment with cycloheximide (CHX). Blockade was then removed by washing off CHX and newly synthesized CFTR was quantified after 2, 4, and 8 hrs incubation either in the absence or presence of CX4945. […] This point has been corroborated by performing the experiment in triplicate and drawing from it quantification of Phe508delCFTR band B, as reported in Panel D.

O=C(O)c1ccc2c(c1)nc(Nc1cccc(Cl)c1)c1ccncc12 [CX4945]
effect on de novo synthesis / accumulation of CFTR wild type (CFTR wild type): accumulates more abundantly than in the absence of CK2 inhibitor; also recorded: de novo synthesis of CFTR wild type is significantly stimulated
effect on de novo synthesis / accumulation of CFTR wild type (CFTR wild type; listed as CX-4945): the re-appearance of CFTR reached higher levels
selectivity for CK2 (CK2): the most selective CK2 inhibitor available to date
effect on de novo synthesis of CFTR T1471A (CFTR T1471A): a similar effect of CX4945 being also detectable; also recorded: a similar effect of CX4945 was observed with CFTR wild type and its T1471A mutant
effect on de novo synthesis / accumulation of Phe508delCFTR (Phe508delCFTR): the efficacy of inhibiting CK2 is enhanced
effect on de novo synthesis / accumulation of Phe508delCFTR (Phe508delCFTR; listed as CX-4945): definitely more pronounced in the case of Phe508delCFTR
increment of Phe508delCFTR band B (Phe508delCFTR; 2 h CHX, then 2 µM CX4945 vs vehicle, Western blot quantitation, experiments in triplicate, Figure 5D): two to three
